Data: patent US7612113B2, “Hydroxy tetrahydro-naphthalenylurea derivatives” (Xention Limited, priority 2002, dated 2009)

What follows are compounds tested against T1, human VR1 (Homo sapiens, UniProt Q8NER1) (assay: capsaicin-induced Ca2+ influx in the human VR1-transfected CHO cell line (Assay 1)). Settings: 10 nM capsaicin, human VR1-CHOluc9aeq cells; read-out: In vitro activity class.
T1 construct: expressed in transfected cells
T1 sequence (Q8NER1 whole entry): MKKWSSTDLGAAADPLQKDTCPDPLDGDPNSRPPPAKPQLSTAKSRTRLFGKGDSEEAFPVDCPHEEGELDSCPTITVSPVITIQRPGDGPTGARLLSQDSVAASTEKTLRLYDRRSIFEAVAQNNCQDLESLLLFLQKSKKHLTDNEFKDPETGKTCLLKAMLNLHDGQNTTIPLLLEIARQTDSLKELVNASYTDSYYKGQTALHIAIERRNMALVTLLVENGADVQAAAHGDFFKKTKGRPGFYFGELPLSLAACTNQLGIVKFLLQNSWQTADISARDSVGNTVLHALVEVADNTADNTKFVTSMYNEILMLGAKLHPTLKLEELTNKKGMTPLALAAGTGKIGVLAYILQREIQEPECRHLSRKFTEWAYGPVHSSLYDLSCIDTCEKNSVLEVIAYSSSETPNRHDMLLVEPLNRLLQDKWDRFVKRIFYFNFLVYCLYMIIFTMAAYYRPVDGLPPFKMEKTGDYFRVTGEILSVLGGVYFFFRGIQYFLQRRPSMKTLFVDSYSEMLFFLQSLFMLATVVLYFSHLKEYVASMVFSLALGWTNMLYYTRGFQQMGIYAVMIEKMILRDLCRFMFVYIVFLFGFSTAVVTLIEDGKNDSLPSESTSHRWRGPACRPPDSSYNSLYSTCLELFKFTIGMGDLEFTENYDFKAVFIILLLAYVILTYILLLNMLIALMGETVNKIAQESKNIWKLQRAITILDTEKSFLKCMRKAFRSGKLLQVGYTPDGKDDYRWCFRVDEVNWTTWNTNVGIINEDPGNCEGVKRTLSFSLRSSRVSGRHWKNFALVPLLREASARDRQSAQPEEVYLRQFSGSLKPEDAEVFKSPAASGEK
Assay type: cell-based
From the text: [Measurement of capsaicin-induced Ca^2+ influx in the human VR1-transfected CHO cell line] (Assay 1)
• (1) Establishment of the Human VR1-CHOluc9aeq Cell Line • Human vanilloid receptor (hVR1) cDNA was cloned from libraries of axotomized dorsal root ganglia (WO 00/29577). The cloned hVR1 cDNA was constructed with pcDNA3 vector and transfected into a CHOluc9aeq cell line. The cell line contains aequorin and CRE-luciferase reporter genes as read-out signals. The transfectants were cloned by limiting dilution in selection medium (DMEM/F12 medium (Gibco BRL) supplemented with 10% FCS, 1.4 mM Sodium pyruvate, 20 mM HEPES, 0.15% Sodium bicarbonate, 100 U/ml penicillin, 100 μg/ml streptomycin, 2 mM glutamine, non-essential amino acids and 2 mg/ml G418). Ca^2+ influx was examined in the capsaicin-stimulated clones. A high responder clone was selected and used for further experiments in the project. The human VR1-CHOluc9aeq cells were maintained in the selection medium and passaged every 3-4 days at 1-2.5×10^5 cells/flask ([…]). • (2) Measurement of Ca^2+ Influx Using FDSS-3000 • Human VR1-CHOluc9aeq cells were suspended in a culture medium which is the same as the selection medium except for G418 and seeded at a density of 1,000 cells per well into 384-well plates (black walled clear-base/Nalge Nunc International). Following the culture for 48 hrs the medium was changed to 2 μM Fluo-3 AM (Molecular Probes) and 0.02% Puronic F-127 in assay buffer (Hank's balanced salt solution (HBSS), 17 mM HEPES (pH7.4), 1 mM Probenecid, 0.1% BSA) and the cells were incubated for 60 min at. 25° C. After washing twice with assay buffer the cells were incubated with a test compound or vehicle for 20 min at 25° C. Mobilization of cytoplasmic Ca^2+ was measured by FDSS-3000 (λex=488 nm, λem=540 nm/Hamamatsu Photonics) for 60 sec after the stimulation with 10 nM capsaicin. Integral R was calculated and compared with controls. [Measurement of the Capsaicin-Induced Ca^2+ Influx in Primary Cultured Rat Dorsal Root Ganglia Neurons] (Assay 2) • (1) Preparation of Rat Dorsal Root Ganglia Neurons • New born Wister rats (5-11 days) were sacrificed and dorsal root ganglia (DRG) was removed. DRG was incubated with 0.1% trypsin (Gibco BRL) in PBS(−) (Gibco BRL) for 30 min at 37° C., then a half volume of fetal calf serum (FCS) was added and the cells were spun down. The DRG neuron cells were resuspended in Ham F12/5% FCS/5% horse serum (Gibco BRL) and dispersed by repeated pipetting and passing through 70 μm mesh Falcon). The culture plate was incubated for 3 hours at 37° C. to remove contaminating Schwann cells. Non-adherent cells were recovered and further cultured in laminin-coated 384 well plates (Nunc) at 1×10^4 cells/50 μl/well for 2 days in the presence of 50 ng/ml recombinant rat NGF (Sigma) and 50 μM 5-fluorodeoxyuridine (Sigma). • (2) Ca^2+ Mobilization Assay • DRG neuron cells were washed twice with HBSS supplemented with 17 mM HEPES (pH 7.4) and 0.1% BSA. After incubating with 2 μM fluo-3AM (Molecular Probe), 0.02% PF127 (Gibco BRL) and 1 mM probenecid (Sigma) for 40 min at 37° C., cells were washed 3 times. The cells were incubated with VR1 antagonists or vehicle (dimethylsulphoxide) and then with 1 μM capsaicin in FDSS-6000 (λex=480 nm, λem=520 nm/Hamamatsu Photonics). The fluorescence changes at 480 nm were monitored for 2.5 min. Integral R was calculated and compared with controls. [Organ Bath Assay to Measure the Capsaicin-Induced Bladder Contraction] (Assay 3)
The data corresponds to the compounds as yielded by solid phase synthesis and thus to levels of purity of about 40 to 90%. For practical reasons, the compounds are grouped in four classes of activity as follows: IC50=A(<or=)0.1 μM<B(<or=)0.5 μM<C(<or=)1 μM<D
In the case of O=C(NCc1ccc(OC(F)(F)F)cc1)Nc1cccc2c1CC(O)CC2 (stereo not shown) [Example 4-1, N-(7-hydroxy-5,6,7,8-tetrahydro-naphthalen-1-yl)-N′-(4-trifluoromethoxy-benzyl)-urea], the IC50 is reported as under 100 nM.
Compound O=C(NCc1ccc(OC(F)(F)F)cc1)Nc1cccc2c1C[C@@H](O)CC2 [Example 4-3, N-{(S)-7-hydroxy-5,6,7,8-tetrahydro-naphthalen-1-yl}-N′-(4-trifluoromethoxy-benzyl)-urea] has an IC50 of under 100 nM.
Compound O=C(NCc1ccc(OC(F)(F)F)cc1)Nc1cccc2c1C[C@H](O)CC2 [Example 4-2, N-{(R)-7-hydroxy-5,6,7,8-tetrahydro-naphthalen-1-yl}-N′-(4-trifluoromethoxy-benzyl)-urea] has an IC50 of under 100 nM.

Same assay, conditions: Table 1; 10 nM capsaicin, human VR1-CHOluc9aeq cells; read-out: activity class
Cc1cc(NC(=O)Nc2cccc3c2CC(O)CC3)ccc1Cl (stereo not shown) [Example 2-36] gave an IC50 of under 100 nM.

Same assay, conditions: Table 2; 10 nM capsaicin, human VR1-CHOluc9aeq cells; read-out: activity class
Work on CN(C)c1ccc(CNC(=O)Nc2cccc3c2CC(O)CC3)cc1 (stereo not shown) [Example 4-34] yielded an IC50 of under 100 nM.
COC(=O)c1ccc(CNC(=O)Nc2cccc3c2CC(O)CC3)cc1 (stereo not shown) [Example 4-22] showed an IC50 of under 100 nM.
Compound O=C(NCc1ccccc1Br)Nc1cccc2c1CC(O)CC2 (stereo not shown) [Example 4-21] has an IC50 of under 100 nM.
For O=C(NCc1ccccc1C(F)(F)F)Nc1cccc2c1CC(O)CC2 (stereo not shown) [Example 4-19], the IC50 was under 100 nM.
Compound O=C(NCc1ccc(F)c(F)c1)Nc1cccc2c1CC(O)CC2 (stereo not shown) [Example 4-12] has an IC50 of under 100 nM.
O=C(NCc1ccc(OC(F)(F)F)cc1)Nc1cccc2c1CC(O)CC2 (stereo not shown) [Example 4-17] gave an IC50 of under 100 nM.
Work on O=C(NCc1c(F)cccc1F)Nc1cccc2c1CC(O)CC2 (stereo not shown) [Example 4-28] yielded an IC50 of 500 to 1000 nM.
O=C(Nc1ccc(OC(F)(F)F)cc1)Nc1cccc2c1CC(O)CC2 (stereo not shown) [Example 4-40] was tested, and the IC50 was under 100 nM.
With NS(=O)(=O)c1ccc(CNC(=O)Nc2cccc3c2CC(O)CC3)cc1 (stereo not shown) [Example 4-50] the IC50 was 500 to 1000 nM.
With Nc1ccc(CNC(=O)Nc2cccc3c2CC(O)CC3)cc1 (stereo not shown) [Example 4-31] the IC50 was 500 to 1000 nM.
Compound CC(C)(NC(=O)Nc1cccc2c1CC(O)CC2)c1ccc(Cl)cc1 (stereo not shown) [Example 4-44] has an IC50 of 100 to 500 nM.
For COc1ccccc1CNC(=O)Nc1cccc2c1CC(O)CC2 (stereo not shown) [Example 4-11], the IC50 was 100 to 500 nM.
In the case of O=C(NCc1ccc(Cl)cc1)Nc1cccc2c1CC(O)CC2 (stereo not shown) [Example 4-9], the IC50 is reported as under 100 nM.
O=C(NCc1ccc(Cl)c(C(F)(F)F)c1)Nc1cccc2c1CC(O)CC2 (stereo not shown) [Example 4-35] showed an IC50 of under 100 nM.
CC(NC(=O)Nc1cccc2c1CC(O)CC2)c1cccc2ccccc12 (stereo not shown) [Example 4-49] gave an IC50 of under 100 nM.
With COc1ccc(CNC(=O)Nc2cccc3c2CC(O)CC3)cc1OC (stereo not shown) [Example 4-27] the IC50 was 500 to 1000 nM.
O=C(NCCc1ccc(Cl)cc1)Nc1cccc2c1CC(O)CC2 (stereo not shown) [Example 4-36] gave an IC50 of under 100 nM.
With Nc1ccccc1CNC(=O)Nc1cccc2c1CC(O)CC2 (stereo not shown) [Example 4-32] the IC50 was 500 to 1000 nM.
With CC(NC(=O)Nc1cccc2c1CC(O)CC2)c1ccc(Br)cc1 (stereo not shown) [Example 4-42] the IC50 was under 100 nM.
For CCOC(=O)Cc1ccc(NC(=O)Nc2cccc3c2CC(O)CC3)cc1 (stereo not shown) [Example 4-33], the IC50 was 100 to 500 nM.
CC(C)(C)c1ccc(CNC(=O)Nc2cccc3c2CC(O)CC3)cc1 (stereo not shown) [Example 4-16] showed an IC50 of under 100 nM.
CC(NC(=O)Nc1cccc2c1CC(O)CC2)c1ccccc1 (stereo not shown) [Example 4-48] showed an IC50 of 100 to 500 nM.
O=C(NCc1ccc(Cl)cc1Cl)Nc1cccc2c1CC(O)CC2 (stereo not shown) [Example 4-15] was tested, and the IC50 was under 100 nM.
O=C(NCc1ccccc1)Nc1cccc2c1CC(O)CC2 (stereo not shown) [Example 4-6] was tested, and the IC50 was 100 to 500 nM.
O=C(NCc1cccc2ccccc12)Nc1cccc2c1CC(O)CC2 (stereo not shown) [Example 4-46] showed an IC50 of under 100 nM.
Compound O=C(NCCc1ccc(Cl)cc1)Nc1cccc2c1C[C@H](O)CC2 [Example 4-53] has an IC50 of under 100 nM.
In the case of COc1cccc(CNC(=O)Nc2cccc3c2CC(O)CC3)c1 (stereo not shown) [Example 4-13], the IC50 is reported as 100 to 500 nM.
O=C(NCc1ccc(C(F)(F)F)cc1)Nc1cccc2c1CC(O)CC2 (stereo not shown) [Example 4-8] showed an IC50 of under 100 nM.
Work on O=C(NCc1cccc(C(F)(F)F)c1)Nc1cccc2c1CC(O)CC2 (stereo not shown) [Example 4-10] yielded an IC50 of under 100 nM.
Work on O=C(NCc1ccc([N+](=O)[O-])cc1)Nc1cccc2c1CC(O)CC2 (stereo not shown) [Example 4-25] yielded an IC50 of under 100 nM.
For O=C(NCc1ccc(Cl)c(Cl)c1)Nc1cccc2c1CC(O)CC2 (stereo not shown) [Example 4-18], the IC50 was under 100 nM.
For O=C(NCc1ccc(C(F)(F)F)c(NC2CCCC2)c1)Nc1cccc2c1CC(O)CC2 (stereo not shown) [Example 4-51], the IC50 was under 100 nM.
With O=C(NCc1cc(C(F)(F)F)cc(C(F)(F)F)c1)Nc1cccc2c1CC(O)CC2 (stereo not shown) [Example 4-26] the IC50 was under 100 nM.
Compound O=C(NCCc1ccc(Cl)cc1)Nc1cccc2c1C[C@@H](O)CC2 [Example 4-54] has an IC50 of under 100 nM.
In the case of Cc1ccc(Oc2ccc(NC(=O)Nc3cccc4c3CC(O)CC4)cc2)cc1 (stereo not shown) [Example 4-38], the IC50 is reported as under 100 nM.
In the case of CC(NC(=O)Nc1cccc2c1CC(O)CC2)c1ccc(F)cc1 (stereo not shown) [Example 4-41], the IC50 is reported as 100 to 500 nM.
In the case of COc1cc(OC)c(CNC(=O)Nc2cccc3c2CC(O)CC3)c(OC)c1 (stereo not shown) [Example 4-23], the IC50 is reported as 500 to 1000 nM.
O=C(NCc1ccc(C(=O)O)cc1)Nc1cccc2c1CC(O)CC2 (stereo not shown) [Example 4-30] was tested, and the IC50 was 500 to 1000 nM.
Compound O=C(Nc1ccc(Oc2ccc(Cl)cc2)cc1)Nc1cccc2c1CC(O)CC2 (stereo not shown) [Example 4-39] has an IC50 of under 100 nM.
Work on O=C(NCc1cccc(OC(F)(F)F)c1)Nc1cccc2c1CC(O)CC2 (stereo not shown) [Example 4-29] yielded an IC50 of under 100 nM.
Work on O=C(NCc1ccc(SC(F)(F)F)cc1)Nc1cccc2c1CC(O)CC2 (stereo not shown) [Example 4-45] yielded an IC50 of under 100 nM.
O=C(Nc1cccc2c1CC(O)CC2)NC(c1ccccc1)c1ccccc1 (stereo not shown) [Example 4-43] was tested, and the IC50 was 500 to 1000 nM.
O=C(NCc1ccc(C(F)(F)F)c(F)c1)Nc1cccc2c1CC(O)CC2 (stereo not shown) [Example 4-37] was tested, and the IC50 was under 100 nM.

Same assay, conditions: Table 3; 10 nM capsaicin, human VR1-CHOluc9aeq cells; read-out: activity class
Compound Cc1ccc(NC(=O)Nc2cccc3c2CC(O)CC3)cc1C (stereo not shown) [Example 5-22] has an IC50 of under 100 nM.
Work on COc1ccc(NC(=O)Nc2cccc3c2CC(O)CC3)cc1OC (stereo not shown) [Example 5-18] yielded an IC50 of 100 to 500 nM.
With CC(C)(C)c1ccc(NC(=O)Nc2cccc3c2CC(O)CC3)cc1 (stereo not shown) [Example 5-9] the IC50 was under 100 nM.
For CCOc1ccc(NC(=O)Nc2cccc3c2CC(O)CC3)cc1 (stereo not shown) [Example 5-14], the IC50 was under 100 nM.
In the case of Cc1cc(NC(=O)Nc2cccc3c2CC(O)CC3)ccc1F (stereo not shown) [Example 5-24], the IC50 is reported as under 100 nM.
O=C(Nc1cccc(Br)c1)Nc1cccc2c1CC(O)CC2 (stereo not shown) [Example 5-5] gave an IC50 of under 100 nM.
In the case of Cc1cc(C)cc(NC(=O)Nc2cccc3c2CC(O)CC3)c1 (stereo not shown) [Example 5-21], the IC50 is reported as under 100 nM.
Compound O=C(Nc1ccc(O)cc1)Nc1cccc2c1CC(O)CC2 (stereo not shown) [Example 5-20] has an IC50 of 500 to 1000 nM.
COc1cc(NC(=O)Nc2cccc3c2CC(O)CC3)cc(C(F)(F)F)c1 (stereo not shown) [Example 5-12] gave an IC50 of under 100 nM.
COc1ccc(NC(=O)Nc2cccc3c2CC(O)CC3)cc1O (stereo not shown) [Example 5-15] gave an IC50 of 500 to 1000 nM.
In the case of Cc1ccc(NC(=O)Nc2cccc3c2CC(O)CC3)cc1 (stereo not shown) [Example 5-7], the IC50 is reported as 100 to 500 nM.
CC(C)c1cccc(NC(=O)Nc2cccc3c2CC(O)CC3)c1 (stereo not shown) [Example 5-8] was tested, and the IC50 was under 100 nM.
COc1ccc(NC(=O)Nc2cccc3c2CC(O)CC3)cc1Cl (stereo not shown) [Example 5-19] showed an IC50 of under 100 nM.
For COc1ccc(NC(=O)Nc2cccc3c2CC(O)CC3)cc1F (stereo not shown) [Example 5-17], the IC50 was under 100 nM.
CSc1ccc(NC(=O)Nc2cccc3c2CC(O)CC3)cc1 (stereo not shown) [Example 5-16] gave an IC50 of 100 to 500 nM.
O=C(Nc1ccccc1F)Nc1cccc2c1CC(O)CC2 (stereo not shown) [Example 5-2] gave an IC50 of 500 to 1000 nM.
CCc1cccc(NC(=O)Nc2cccc3c2CC(O)CC3)c1 (stereo not shown) [Example 5-23] was tested, and the IC50 was under 100 nM.
